Reference: PMC9898036, “VIP152 is a selective CDK9 inhibitor with pre-clinical in vitro and in vivo efficacy in chronic lymphocytic leukemia” (Leukemia, 2022)

Legend:
PIKFYVE = PIKFYVE (Homo sapiens, UniProt Q9Y2I7); assay: KINOMEscan: PIKFYVE; format: binding
Experimental: The structure and synthesis of VIP152 were recently described by Lücking et al.. (Fig. 1A); however, the selectivity of the molecule in cellular systems has yet to be explored. […] We also performed this experiment at 1000 nM, where CDK9 was inhibited at 99%. […] We found a strong concordance between our data and those of Lücking when comparing the most inhibited kinases. Potential off-target effects of VIP152 were next tested in vitro at a concentration of 10 µM for off-target activity against a broad range of receptors, transporters, ion channels, and enzymes (n = 138) using the Eurofins Diversity Panel.
Kinomescan Kinase Profiling Assay
Kinomescan Assay was performed at DiscoverRX and described in Fabian, et al. 2005, Nat.
Biotechnol. In brief, kinases were produced and subsequently tagged with DNA for qPCR detection.
Streptavidin-coated magnetic beads were bound to biotinylated kinase ligands to serve as a solid support.
VIP152 was dissolved in DMSO and tested across a 10 serial threefold dilution set and compared to a test compound and a DMSO control. Kinases which were inhibited by VIP152 would not be bound to the solid-support resulting in decreased substrate for the qPCR reaction. Kinome map was produced via TreeSpot Analysis from DiscoverRX. […]
NanoBRETTM Target Engagement Assay Protocol […]
The cell and lipid:DNA […]
complex was dispensed into a sterile tissue culture dish and incubated for 22-24 hours. Test compounds were then delivered from the compound source plate to the wells of a 384-well white NBS plate by Echo 550. Cells with NanoBRET Tracer Reagent were then prepared by first removing media from dish of transfected HEK293 cells via aspiration, trypsinization, and allowing cells to dissociate from the dish. Trypsin was neutralized using medium containing serum and centrifuged at 200g for 5 minutes to pellet the cells. Cell density was then adjusted to 2E05 cells/mL in Opti-MEM without phenol red. Complete 20X NanoBRET Tracer Reagent was prepared with Tracer Dilution Buffer and dispensed at a ratio of 1:20 Reagent to cells in the tube. The cell

HG-3 cell line = assay: Nuclear CDK9 co-immunoprecipitation (LC-MS/MS proteomics, western blot); format: cell-based, human
Experimental: HG-3 cell line was treated with 1 µM VIP152 or DMSO for 2 h; nuclei were isolated using the Nuclear Complex Co-IP Kit (Active Motif) according to the manufacturer’s protocol. Nuclear lysate was immunoprecipitated using a CDK9 antibody (ab239364 - Abcam) or isotype control (3900 S – Cell Signaling Technology) with Dynabeads™ Protein G Immunoprecipitation Kit (10007D – ThermoFisher Scientific). Beads were submitted for proteomics to the Ohio State University Proteomics Center at the Campus Chemical Instrument Center. Full proteomic methods are available in the supplementary methods section.
Having observed the transcriptomic effects of VIP152 inhibition, we hypothesized a change in the P-TEFb complex would occur validating the mechanism of this agent. Previously, Dow et al. described changes in P-TEFb nuclear complexes with flavopiridol treatment; specifically, they observed loss of nuclear speckles of P-TEFb complexes containing HEXIM1, a major component of the 7SK-RNA complex that inhibits P-TEFb. We observed an increase in the 42 kDa and 55 kDa isoforms of CDK9, as well as Cyclin T1, in the nuclear fraction following treatment (Fig. 4A, B). […] Next, a nuclear immunoprecipitation of CDK9 after a two-hour drugging in the HG-3 cell line (n = 3) was performed, followed by liquid chromatography with tandem mass spectrometry (LC-MS/MS). We detected 226 differentially co-localized proteins and again observed an enrichment in the treated fraction for P-TEFb (Fig. 4B, C). […] These findings were validated via western blot in the MEC-1 and HG-3 cell lines (Supplementary Fig. 9). […] Finally, to appreciate the effect of inhibition on the association with the inhibitory 7SK-RNA complex, we performed reciprocal nuclear co-immunoprecipitation of CDK9 and HEXIM1 (Fig. 4E and Supplementary Fig. 10). […] This decrease in 7SK association due to inhibition is consistent with other work characterizing the disruption of the 7SK complex as a result of cellular stresses.
MSGF+ search engine against a reviewed UniProt human proteome (downloaded 12/07/2020) containing the cRAP and MaxQuant contaminant FASTAs32. Search parameters included: full trypsin digest, 1 missed cleavage, carbamidomethylation of cysteine as a fixed modification and oxidation of methionine as a variable modification with precursor and fragment mass tolerances of 10 ppm and 5 Da. PSM rescoring was performed with Percolator and protein inference was performed with Epifany across all samples, setting peptide and protein false discovery rates to 0.05. […]
All data analysis was performed with R (version 3.6.2) with various packages and is included in supplemental material (zipped File_S1). […] Data was quantile normalized, and significance (p-value < 0.05) determined by a modified exact test. […]

RIPK5 = RIPK5 (Homo sapiens, UniProt Q6XUX3); assay: KINOMEscan: RIPK5; format: binding; settings: 100 nM, read-out: Percent Control
ROS1 = ROS1 (Homo sapiens, UniProt P08922); assay: KINOMEscan: ROS1; format: binding; settings: 100 nM, read-out: Percent Control
SgK110 = SgK110 (Homo sapiens, UniProt P0C264); assay: KINOMEscan: SgK110; format: binding; settings: 100 nM, read-out: Percent Control
TXK = TXK (Homo sapiens, UniProt P42681); assay: KINOMEscan: TXK; format: binding; settings: 100 nM, read-out: Percent Control
DCAMKL2 = DCAMKL2 (Homo sapiens, UniProt Q8N568); assay: KINOMEscan: DCAMKL2; format: binding; settings: 1000 nM, read-out: Percent Control
EPHA3 = EPHA3 (Homo sapiens, UniProt P29320); assay: KINOMEscan: EPHA3; format: binding; settings: 1000 nM, read-out: Percent Control
ITK = ITK (Homo sapiens, UniProt Q08881); assay: KINOMEscan: ITK; format: binding; settings: 1000 nM, read-out: Percent Control
Chain of ITK (Q08881 whole entry): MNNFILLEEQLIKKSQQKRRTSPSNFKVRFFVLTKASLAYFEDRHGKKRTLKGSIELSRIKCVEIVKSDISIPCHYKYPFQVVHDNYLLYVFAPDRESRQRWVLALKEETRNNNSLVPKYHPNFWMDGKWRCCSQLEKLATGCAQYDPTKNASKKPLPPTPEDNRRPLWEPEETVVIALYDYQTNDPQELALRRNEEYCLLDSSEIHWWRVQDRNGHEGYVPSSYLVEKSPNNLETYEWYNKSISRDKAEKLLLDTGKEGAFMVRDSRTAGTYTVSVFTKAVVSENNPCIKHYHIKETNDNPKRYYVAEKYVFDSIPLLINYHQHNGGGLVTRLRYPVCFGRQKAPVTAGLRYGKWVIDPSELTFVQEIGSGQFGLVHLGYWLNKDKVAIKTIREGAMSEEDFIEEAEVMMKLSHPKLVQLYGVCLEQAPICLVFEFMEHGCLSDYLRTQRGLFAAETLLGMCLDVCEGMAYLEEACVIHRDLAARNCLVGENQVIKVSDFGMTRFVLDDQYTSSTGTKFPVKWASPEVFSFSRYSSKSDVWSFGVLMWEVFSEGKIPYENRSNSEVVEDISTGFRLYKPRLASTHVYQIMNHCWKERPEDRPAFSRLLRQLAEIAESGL

Chain of PIKFYVE (Q9Y2I7 whole entry): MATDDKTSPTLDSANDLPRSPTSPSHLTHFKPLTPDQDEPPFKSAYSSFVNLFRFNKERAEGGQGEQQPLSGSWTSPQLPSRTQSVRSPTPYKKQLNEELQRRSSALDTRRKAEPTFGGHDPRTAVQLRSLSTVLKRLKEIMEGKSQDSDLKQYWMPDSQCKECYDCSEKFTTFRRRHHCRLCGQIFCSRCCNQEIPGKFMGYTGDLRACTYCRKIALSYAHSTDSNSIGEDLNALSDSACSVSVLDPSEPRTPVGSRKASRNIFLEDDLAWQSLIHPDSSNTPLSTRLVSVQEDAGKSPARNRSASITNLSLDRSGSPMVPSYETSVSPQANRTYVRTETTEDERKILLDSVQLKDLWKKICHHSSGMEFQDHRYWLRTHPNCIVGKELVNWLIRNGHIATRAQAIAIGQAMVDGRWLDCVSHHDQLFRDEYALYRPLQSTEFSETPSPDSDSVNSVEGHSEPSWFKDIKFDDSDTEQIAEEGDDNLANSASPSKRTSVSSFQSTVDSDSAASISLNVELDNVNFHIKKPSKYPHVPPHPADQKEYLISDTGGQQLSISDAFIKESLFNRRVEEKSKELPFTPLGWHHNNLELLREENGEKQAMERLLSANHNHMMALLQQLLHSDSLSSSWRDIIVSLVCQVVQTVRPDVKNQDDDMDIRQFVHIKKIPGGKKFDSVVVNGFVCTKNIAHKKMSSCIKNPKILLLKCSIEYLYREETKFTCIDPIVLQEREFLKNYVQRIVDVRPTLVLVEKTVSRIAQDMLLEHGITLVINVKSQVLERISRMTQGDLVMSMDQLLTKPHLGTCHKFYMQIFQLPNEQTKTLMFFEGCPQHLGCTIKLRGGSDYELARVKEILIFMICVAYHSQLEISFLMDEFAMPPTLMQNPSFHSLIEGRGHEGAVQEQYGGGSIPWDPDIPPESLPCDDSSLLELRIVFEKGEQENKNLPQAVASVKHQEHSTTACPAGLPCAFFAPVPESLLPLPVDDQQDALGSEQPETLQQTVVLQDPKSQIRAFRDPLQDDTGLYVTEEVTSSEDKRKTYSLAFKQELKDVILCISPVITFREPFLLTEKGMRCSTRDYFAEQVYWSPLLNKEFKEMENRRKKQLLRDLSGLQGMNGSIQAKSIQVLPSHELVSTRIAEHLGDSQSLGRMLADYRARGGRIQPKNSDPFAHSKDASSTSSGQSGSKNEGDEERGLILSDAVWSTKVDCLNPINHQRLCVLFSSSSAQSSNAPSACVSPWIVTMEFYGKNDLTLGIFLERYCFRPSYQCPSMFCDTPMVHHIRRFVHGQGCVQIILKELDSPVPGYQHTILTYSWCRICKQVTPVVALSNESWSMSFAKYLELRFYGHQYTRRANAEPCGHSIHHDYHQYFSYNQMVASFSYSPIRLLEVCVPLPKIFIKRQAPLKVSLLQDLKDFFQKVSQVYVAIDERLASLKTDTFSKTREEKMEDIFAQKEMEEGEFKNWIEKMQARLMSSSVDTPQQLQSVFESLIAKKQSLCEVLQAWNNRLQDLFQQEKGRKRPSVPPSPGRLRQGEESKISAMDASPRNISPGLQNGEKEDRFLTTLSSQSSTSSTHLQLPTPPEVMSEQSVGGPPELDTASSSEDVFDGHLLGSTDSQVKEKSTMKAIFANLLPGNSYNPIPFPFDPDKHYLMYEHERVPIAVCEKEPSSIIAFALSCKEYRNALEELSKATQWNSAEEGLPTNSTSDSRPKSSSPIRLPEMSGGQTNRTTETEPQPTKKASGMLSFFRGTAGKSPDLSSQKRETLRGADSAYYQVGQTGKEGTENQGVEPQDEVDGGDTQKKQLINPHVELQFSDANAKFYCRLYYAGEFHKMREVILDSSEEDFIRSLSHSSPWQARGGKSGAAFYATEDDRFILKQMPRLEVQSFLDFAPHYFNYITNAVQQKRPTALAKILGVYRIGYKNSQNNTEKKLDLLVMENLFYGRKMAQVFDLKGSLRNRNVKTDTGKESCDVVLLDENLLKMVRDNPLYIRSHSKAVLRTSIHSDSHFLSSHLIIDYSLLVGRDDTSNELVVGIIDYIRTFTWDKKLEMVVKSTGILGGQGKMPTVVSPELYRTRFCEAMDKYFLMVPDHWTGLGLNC
Chain of SgK110 (P0C264 whole entry): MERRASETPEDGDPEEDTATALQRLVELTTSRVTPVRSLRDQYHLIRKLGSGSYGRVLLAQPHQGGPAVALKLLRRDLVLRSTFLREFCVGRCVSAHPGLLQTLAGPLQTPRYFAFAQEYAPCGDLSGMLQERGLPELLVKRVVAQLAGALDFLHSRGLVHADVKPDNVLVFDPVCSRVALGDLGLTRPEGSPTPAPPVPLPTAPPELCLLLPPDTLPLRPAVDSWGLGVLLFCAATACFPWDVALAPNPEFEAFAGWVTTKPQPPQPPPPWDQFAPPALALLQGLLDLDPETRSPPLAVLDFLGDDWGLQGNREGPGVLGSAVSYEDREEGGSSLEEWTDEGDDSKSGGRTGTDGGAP
Chain of DCAMKL2 (Q8N568 whole entry): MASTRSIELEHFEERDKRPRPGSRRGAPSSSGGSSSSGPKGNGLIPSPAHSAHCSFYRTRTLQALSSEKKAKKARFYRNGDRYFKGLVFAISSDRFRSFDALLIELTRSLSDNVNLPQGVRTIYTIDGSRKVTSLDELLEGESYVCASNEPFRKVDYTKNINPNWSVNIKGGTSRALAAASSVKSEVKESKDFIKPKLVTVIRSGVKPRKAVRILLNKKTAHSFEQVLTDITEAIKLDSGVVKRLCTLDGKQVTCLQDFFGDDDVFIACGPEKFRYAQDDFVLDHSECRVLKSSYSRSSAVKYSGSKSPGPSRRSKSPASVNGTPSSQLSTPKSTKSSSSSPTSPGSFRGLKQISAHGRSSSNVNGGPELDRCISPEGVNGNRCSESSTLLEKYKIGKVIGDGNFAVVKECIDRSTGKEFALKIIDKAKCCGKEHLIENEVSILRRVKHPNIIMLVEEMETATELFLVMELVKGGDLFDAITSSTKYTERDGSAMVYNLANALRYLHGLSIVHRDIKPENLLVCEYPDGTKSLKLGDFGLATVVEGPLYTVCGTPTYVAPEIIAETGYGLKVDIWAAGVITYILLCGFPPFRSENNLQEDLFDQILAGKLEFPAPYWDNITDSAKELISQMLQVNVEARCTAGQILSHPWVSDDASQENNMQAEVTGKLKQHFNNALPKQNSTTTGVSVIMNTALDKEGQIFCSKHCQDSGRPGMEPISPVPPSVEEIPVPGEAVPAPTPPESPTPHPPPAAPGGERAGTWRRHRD
Chain of TXK (P42681 whole entry): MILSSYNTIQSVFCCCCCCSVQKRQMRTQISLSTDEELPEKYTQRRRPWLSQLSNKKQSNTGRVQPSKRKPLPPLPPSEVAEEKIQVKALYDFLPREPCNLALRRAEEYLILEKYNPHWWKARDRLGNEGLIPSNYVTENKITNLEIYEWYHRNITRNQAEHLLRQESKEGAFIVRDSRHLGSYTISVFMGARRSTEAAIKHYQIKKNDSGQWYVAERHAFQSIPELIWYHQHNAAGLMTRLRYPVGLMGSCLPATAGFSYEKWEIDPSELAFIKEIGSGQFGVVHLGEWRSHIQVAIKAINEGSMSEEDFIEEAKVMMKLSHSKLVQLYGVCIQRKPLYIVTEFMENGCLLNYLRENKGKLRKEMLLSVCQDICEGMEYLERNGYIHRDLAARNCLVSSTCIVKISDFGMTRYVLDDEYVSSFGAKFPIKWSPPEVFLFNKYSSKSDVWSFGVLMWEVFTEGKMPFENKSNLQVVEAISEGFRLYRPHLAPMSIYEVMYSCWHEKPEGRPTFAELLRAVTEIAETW

COc1cc(F)ccc1-c1cc(Nc2cc(CS(C)(=N)=O)ccn2)ncc1F (centres unmarked) [VIP152]
inhibition at 0.1 µM (PIKFYVE; 100 nM, read-out: inhibition of PIKFYVE relative to control): 74%
remaining binding at 0.1 µM (PIKFYVE; PIKFYVE, 100 nM, read-out: Percent Control): 26%
remaining binding at 1 µM (PIKFYVE; kinase PIKFYVE (Entrez PIKFYVE), compound concentration 1000 nM, read-out: Percent Control): 55%
association with transcription-associated machinery (SPT6H and IWS1) and RPB3 (HG-3 cell line; 1 µM, 2 h, nuclear IP of CDK9): decreased association
differentially co-localized proteins (HG-3 cell line; 1 µM, 2 h, nuclear IP of CDK9, LC-MS/MS): 226
association with DDX21, Fold Change (HG-3 cell line; 1 µM, 2 h, nuclear IP of CDK9, proteomics): 1.47
association of CDK9 with 7SK-RNA complex components (HEXIM1, MEPCE, LARP7) (HG-3 cell line; HG-3 and MEC-1, reciprocal nuclear co-immunoprecipitation of CDK9 and HEXIM1): decreased association
remaining binding at 0.1 µM (RIPK5): 83%
remaining binding at 0.1 µM (ROS1): 100%
remaining binding at 0.1 µM (SgK110): 100%
remaining binding at 0.1 µM (TXK): 100%
remaining binding at 1 µM (DCAMKL2): 96%
remaining binding at 1 µM (EPHA3): 89%
remaining binding at 1 µM (ITK): 100%
